# Measured values taken from patent US9493461B2, “Tetracyclic heterocycle compounds and methods of use thereof for the treatment of hepatitis C” (priority 2013, dated 2016).
# Legend:
# HCV replicon genotype 1a = assay: HCV replicon assay, genotype 1a (cell ELISA for replicon-encoded NS3/4A); type: cell-based, hepatitis C virus (HCV); settings: Hepatitis C virus, 96 h, read-out: 1a IC50 (nM), genotype 1a replicon cells, 96 hours incubation, NS3/4A ELISA readout, % of DMSO control
# Method in brief: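 Stable G418-selected neomycin-resistant HCV replicon cells were plated with serially diluted compound without G418 and incubated 96 h. After washing and lysis, replicon RNA was measured indirectly by cell ELISA for replicon-encoded NS3/4A; IC50 from four-parameter fit relative to DMSO control.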
# HCV replicon genotype 1b = assay: HCV replicon assay, genotype 1b (cell ELISA for replicon-encoded NS3/4A); type: cell-based, hepatitis C virus (HCV); settings: Hepatitis C virus, 96 h, read-out: 1b IC50 (nM), genotype 1b replicon cells, 96 hours incubation, NS3/4A ELISA readout, % of DMSO control
# Method in brief: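 Genotype 1b replicon cells (neomycin-selected, G418 removed for assay) incubated 96 h with compound dilution series. Replication measured by cell ELISA for replicon-encoded NS3/4A after lysis; IC50 from four-parameter fit relative to DMSO control.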
Structure (SMILES),IC50 (HCV replicon genotype 1a),IC50 (HCV replicon genotype 1b)
CNC(=O)c1c(-c2ccc(F)cc2F)oc2cc(N(C)S(C)(=O)=O)c(-c3ccc4nc(CN5CC(C(C)(C)O)C5)n5c6cccc(F)c6cc5c4n3)cc12 [Example 143],5.17 nM,6.21 nM
CNC(=O)c1c(-c2ccc(F)cc2F)oc2cc(N(C)S(C)(=O)=O)c(-c3ccc4nc(CN5CCC[C@@H]5C(F)(F)F)n5c6cccc(F)c6cc5c4n3)cc12 [Example 144],13.3 nM,14.6 nM
CNC(=O)c1c(-c2ccc(F)cc2F)oc2cc(N(C)S(C)(=O)=O)c(-c3ccc4nc(CN5CCC[C@H]5C(F)(F)F)n5c6cccc(F)c6cc5c4n3)cc12 [Example 145],20 nM,12.2 nM
CNC(=O)c1c(-c2ccc(F)cc2F)oc2cc(N(C)S(C)(=O)=O)c(-c3ccc4nc(CN5CC6CC5CO6)n5c6cccc(F)c6cc5c4n3)cc12 (stereo not shown) [Example 146],3.38 nM,3.38 nM
CNC(=O)c1c(-c2ccc(F)cc2F)oc2cc(N(C)S(C)(=O)=O)c(-c3ccc4nc(CN5CCN(C)CC5)n5c6cccc(F)c6cc5c4n3)cc12 [Example 147],3.48 nM,3.99 nM
CNC(=O)c1c(-c2ccc(F)cc2F)oc2cc(N(C)S(C)(=O)=O)c(-c3ccc4nc(CN5CCN(C(C)=O)CC5)n5c6cccc(F)c6cc5c4n3)cc12 [Example 148],2.52 nM,3.17 nM
CNC(=O)c1c(-c2ccc(F)cc2F)oc2cc(N(C)S(C)(=O)=O)c(-c3ccc4nc(CN5CC(S(C)(=O)=O)C5)n5c6cccc(F)c6cc5c4n3)cc12 [Example 149],3.38 nM,2.49 nM
CNC(=O)c1c(C2CC2)oc2cc(N(C)S(C)(=O)=O)c(-c3ccc4nc(CN5CC(F)C5)n5c6cccc(F)c6cc5c4n3)cc12 [Example 151],2.66 nM,3.43 nM
